Experimental data taken from ChEMBL document CHEMBL5518248, “Design, Synthesis, and Biological Evaluation of Novel Arylomycins against Multidrug-Resistant Gram-Negative Bacteria” (J Med Chem, 2024).

How the values were obtained:
Type in all cases: functional
Conditions in all cases: time 18-20 hrs
Escherichia coli [1] = assay: Antibacterial activity against Escherichia coli ATCC 35218 assessed as inhibition of bacterial growth measured after 18 to 20 hrs by broth microdilution method
Escherichia coli [2] = assay: Antibacterial activity against Escherichia coli 14-4 assessed as inhibition of bacterial growth measured after 18 to 20 hrs by broth microdilution method
Acinetobacter baumannii [3] = assay: Antibacterial activity against Acinetobacter baumannii 17-2 assessed as inhibition of bacterial growth measured after 18 to 20 hrs by broth microdilution method
Pseudomonas aeruginosa [4] = assay: Antibacterial activity against Pseudomonas aeruginosa 17-1 assessed as inhibition of bacterial growth measured after 18 to 20 hrs by broth microdilution method
Klebsiella pneumoniae [5] = assay: Antibacterial activity against Klebsiella pneumoniae 15-1 assessed as inhibition of bacterial growth measured after 18 to 20 hrs by broth microdilution method
Acinetobacter baumannii [6] = assay: Antibacterial activity against Acinetobacter baumannii 17-8 assessed as inhibition of bacterial growth measured after 18 to 20 hrs by broth microdilution method
Klebsiella pneumoniae [7] = assay: Antibacterial activity against Klebsiella pneumoniae 15-5 assessed as inhibition of bacterial growth measured after 18 to 20 hrs by broth microdilution method
Pseudomonas aeruginosa [8] = assay: Antibacterial activity against Pseudomonas aeruginosa 19-5 assessed as inhibition of bacterial growth measured after 18 to 20 hrs by broth microdilution method
Klebsiella pneumoniae [9] = assay: Antibacterial activity against Klebsiella pneumoniae 15-4 assessed as inhibition of bacterial growth measured after 18 to 20 hrs by broth microdilution method
Escherichia coli [10] = assay: Antibacterial activity against Escherichia coli 14-2 assessed as inhibition of bacterial growth measured after 18 to 20 hrs by broth microdilution method

## Cc1nc(-c2ccc(C(C)(C)C)cc2)ncc1C(=O)N[C@@H](CCN)C(=O)N(C)[C@@H]1C(=O)N[C@@H](C)C(=O)N[C@H](C(=O)NN(C)CC#N)Cc2ccc(OCCN)c(c2)-c2cc1ccc2OCCN.Cl.Cl.Cl.Cl
Escherichia coli [1]
  MIC: 4 mg/L
Escherichia coli [2]
  MIC: 4 mg/L
Acinetobacter baumannii [3]
  MIC: > 64 mg/L
Pseudomonas aeruginosa [4]
  MIC: > 64 mg/L
Klebsiella pneumoniae [5]
  MIC: 8 mg/L
Acinetobacter baumannii [6]
  MIC: 64 mg/L
Klebsiella pneumoniae [7]
  MIC: 16 mg/L
Pseudomonas aeruginosa [8]
  MIC: > 64 mg/L
Klebsiella pneumoniae [9]
  MIC: 16 mg/L
Escherichia coli [10]
  MIC: 16 mg/L

## Cc1nc(-c2ccc(SSC(C)C)cc2)ncc1C(=O)N[C@@H](CCN)C(=O)N(C)[C@@H]1C(=O)N[C@@H](C)C(=O)N[C@H](C(=O)NCC#N)Cc2ccc(OCCN)c(c2)-c2cc1ccc2OCCN.O=C(O)C(F)(F)F.O=C(O)C(F)(F)F.O=C(O)C(F)(F)F.O=C(O)C(F)(F)F
Escherichia coli [1]
  MIC: ≤ 0.03 mg/L
Escherichia coli [2]
  MIC: ≤ 0.03 mg/L
Acinetobacter baumannii [3]
  MIC: 0.5 mg/L
Pseudomonas aeruginosa [4]
  MIC: 4 mg/L
Klebsiella pneumoniae [5]
  MIC: 0.06 mg/L
Acinetobacter baumannii [6]
  MIC: 0.25 mg/L
Klebsiella pneumoniae [7]
  MIC: 0.06 mg/L
Pseudomonas aeruginosa [8]
  MIC: 4 mg/L
Klebsiella pneumoniae [9]
  MIC: 0.06 mg/L
Escherichia coli [10]
  MIC: 0.06 mg/L

## Cc1nc(-c2ccc([C@@H](C)SSC(C)(C)C)cc2)ncc1C(=O)N[C@@H](CCN)C(=O)N(C)[C@@H]1C(=O)N[C@@H](C)C(=O)N[C@H](C(=O)NCC#N)Cc2ccc(OCCN)c(c2)-c2cc1ccc2OCCN.O=C(O)C(F)(F)F.O=C(O)C(F)(F)F.O=C(O)C(F)(F)F.O=C(O)C(F)(F)F
Escherichia coli [1]
  MIC: ≤ 0.03 mg/L
Escherichia coli [2]
  MIC: ≤ 0.03 mg/L
Acinetobacter baumannii [3]
  MIC: 0.5 mg/L
Pseudomonas aeruginosa [4]
  MIC: 4 mg/L
Klebsiella pneumoniae [5]
  MIC: 0.25 mg/L
Acinetobacter baumannii [6]
  MIC: 0.5 mg/L
Klebsiella pneumoniae [7]
  MIC: 0.125 mg/L
Pseudomonas aeruginosa [8]
  MIC: 4 mg/L
Klebsiella pneumoniae [9]
  MIC: 0.25 mg/L
Escherichia coli [10]
  MIC: ≤ 0.03 mg/L

## Cc1nc(-c2ccc(CCCSSC(C)(C)C)cc2)ncc1C(=O)N[C@@H](CCN)C(=O)N(C)[C@@H]1C(=O)N[C@@H](C)C(=O)N[C@H](C(=O)NCC#N)Cc2ccc(OCCN)c(c2)-c2cc1ccc2OCCN.O=C(O)C(F)(F)F.O=C(O)C(F)(F)F.O=C(O)C(F)(F)F.O=C(O)C(F)(F)F
Escherichia coli [1]
  MIC: 0.5 mg/L
Escherichia coli [2]
  MIC: 0.25 mg/L
Acinetobacter baumannii [3]
  MIC: 1 mg/L
Pseudomonas aeruginosa [4]
  MIC: 4 mg/L
Klebsiella pneumoniae [5]
  MIC: 0.5 mg/L
Acinetobacter baumannii [6]
  MIC: 1 mg/L
Klebsiella pneumoniae [7]
  MIC: 0.5 mg/L
Pseudomonas aeruginosa [8]
  MIC: 2 mg/L
Klebsiella pneumoniae [9]
  MIC: 0.5 mg/L
Escherichia coli [10]
  MIC: 0.5 mg/L

## Cc1nc(-c2ccc(C(C)(C)C)cc2)ncc1CC(=O)N[C@@H](CCN)C(=O)N(C)[C@@H]1C(=O)N[C@@H](C)C(=O)N[C@H](C(=O)NCC#N)Cc2ccc(OCCN)c(c2)-c2cc1ccc2OCCN.O=C(O)C(F)(F)F.O=C(O)C(F)(F)F.O=C(O)C(F)(F)F.O=C(O)C(F)(F)F
Escherichia coli [1]
  MIC: 16 mg/L
Escherichia coli [2]
  MIC: 16 mg/L
Acinetobacter baumannii [3]
  MIC: 64 mg/L
Pseudomonas aeruginosa [4]
  MIC: > 64 mg/L
Klebsiella pneumoniae [5]
  MIC: > 64 mg/L
Acinetobacter baumannii [6]
  MIC: 8 mg/L
Klebsiella pneumoniae [7]
  MIC: > 64 mg/L
Pseudomonas aeruginosa [8]
  MIC: > 64 mg/L
Klebsiella pneumoniae [9]
  MIC: > 64 mg/L
Escherichia coli [10]
  MIC: 16 mg/L

## Cc1nc(-c2ccc(CSSC(C)(C)C)c(F)c2)ncc1C(=O)N[C@@H](CCN)C(=O)N(C)[C@@H]1C(=O)N[C@@H](C)C(=O)N[C@H](C(=O)NCC#N)Cc2ccc(OCCN)c(c2)-c2cc1ccc2OCCN.O=C(O)C(F)(F)F.O=C(O)C(F)(F)F.O=C(O)C(F)(F)F.O=C(O)C(F)(F)F
Escherichia coli [1]
  MIC: 0.06 mg/L
Escherichia coli [2]
  MIC: 0.125 mg/L
Acinetobacter baumannii [3]
  MIC: 1 mg/L
Pseudomonas aeruginosa [4]
  MIC: 4 mg/L
Klebsiella pneumoniae [5]
  MIC: 0.25 mg/L
Acinetobacter baumannii [6]
  MIC: 1 mg/L
Klebsiella pneumoniae [7]
  MIC: 0.25 mg/L
Pseudomonas aeruginosa [8]
  MIC: 4 mg/L
Klebsiella pneumoniae [9]
  MIC: 0.25 mg/L
Escherichia coli [10]
  MIC: 0.125 mg/L

## Cc1nc(-c2ccc(C(C)(C)C)cc2)ncc1C(=O)C(=O)N[C@@H](CCN)C(=O)N(C)[C@@H]1C(=O)N[C@@H](C)C(=O)N[C@H](C(=O)NCC#N)Cc2ccc(OCCN)c(c2)-c2cc1ccc2OCCN.O=C(O)C(F)(F)F.O=C(O)C(F)(F)F.O=C(O)C(F)(F)F.O=C(O)C(F)(F)F
Escherichia coli [1]
  MIC: 2 mg/L
Escherichia coli [2]
  MIC: 2 mg/L
Acinetobacter baumannii [3]
  MIC: 4 mg/L
Pseudomonas aeruginosa [4]
  MIC: 32 mg/L
Klebsiella pneumoniae [5]
  MIC: 8 mg/L
Acinetobacter baumannii [6]
  MIC: 1 mg/L
Klebsiella pneumoniae [7]
  MIC: 8 mg/L
Pseudomonas aeruginosa [8]
  MIC: 64 mg/L
Klebsiella pneumoniae [9]
  MIC: 16 mg/L
Escherichia coli [10]
  MIC: 2 mg/L

## Cc1nc(-c2ccc(C(C)(C)C)cc2)ncc1C(=O)N[C@@H](CCN)C(=O)N(C)[C@@H]1C(=O)N[C@@H](C)C(=O)N[C@H](C(=O)OCC#N)Cc2ccc(OCCN)c(c2)-c2cc1ccc2OCCN.O=C(O)C(F)(F)F.O=C(O)C(F)(F)F.O=C(O)C(F)(F)F.O=C(O)C(F)(F)F
Escherichia coli [1]
  MIC: 0.06 mg/L
Escherichia coli [2]
  MIC: 0.25 mg/L
Acinetobacter baumannii [3]
  MIC: 8 mg/L
Pseudomonas aeruginosa [4]
  MIC: > 64 mg/L
Klebsiella pneumoniae [5]
  MIC: 0.125 mg/L
Acinetobacter baumannii [6]
  MIC: 4 mg/L
Klebsiella pneumoniae [7]
  MIC: 0.25 mg/L
Pseudomonas aeruginosa [8]
  MIC: > 64 mg/L
Klebsiella pneumoniae [9]
  MIC: 0.25 mg/L
Escherichia coli [10]
  MIC: 0.125 mg/L

## Cc1nc(-c2ccc(CSSCC[Si](C)(C)C)cc2)ncc1C(=O)N[C@@H](CCN)C(=O)N(C)[C@@H]1C(=O)N[C@@H](C)C(=O)N[C@H](C(=O)NCC#N)Cc2ccc(OCCN)c(c2)-c2cc1ccc2OCCN.O=C(O)C(F)(F)F.O=C(O)C(F)(F)F.O=C(O)C(F)(F)F.O=C(O)C(F)(F)F
Escherichia coli [1]
  MIC: 0.25 mg/L
Escherichia coli [2]
  MIC: 1 mg/L
Acinetobacter baumannii [3]
  MIC: 1 mg/L
Pseudomonas aeruginosa [4]
  MIC: 4 mg/L
Klebsiella pneumoniae [5]
  MIC: 1 mg/L
Acinetobacter baumannii [6]
  MIC: 1 mg/L
Klebsiella pneumoniae [7]
  MIC: 1 mg/L
Pseudomonas aeruginosa [8]
  MIC: 4 mg/L
Klebsiella pneumoniae [9]
  MIC: 1 mg/L
Escherichia coli [10]
  MIC: 0.5 mg/L

## CSCCSSCc1ccc(-c2ncc(C(=O)N[C@@H](CCN)C(=O)N(C)[C@@H]3C(=O)N[C@@H](C)C(=O)N[C@H](C(=O)NCC#N)Cc4ccc(OCCN)c(c4)-c4cc3ccc4OCCN)c(C)n2)cc1.O=C(O)C(F)(F)F.O=C(O)C(F)(F)F.O=C(O)C(F)(F)F.O=C(O)C(F)(F)F
Escherichia coli [1]
  MIC: 0.125 mg/L
Escherichia coli [2]
  MIC: 0.25 mg/L
Acinetobacter baumannii [3]
  MIC: 2 mg/L
Pseudomonas aeruginosa [4]
  MIC: 32 mg/L
Klebsiella pneumoniae [5]
  MIC: 0.5 mg/L
Acinetobacter baumannii [6]
  MIC: 1 mg/L
Klebsiella pneumoniae [7]
  MIC: 0.25 mg/L
Pseudomonas aeruginosa [8]
  MIC: 16 mg/L
Klebsiella pneumoniae [9]
  MIC: 0.5 mg/L
Escherichia coli [10]
  MIC: 0.25 mg/L

## Cc1nc(-c2ccc(CCSSC(C)(C)C)cc2)ncc1C(=O)N[C@@H](CCN)C(=O)N(C)[C@@H]1C(=O)N[C@@H](C)C(=O)N[C@H](C(=O)NCC#N)Cc2ccc(OCCN)c(c2)-c2cc1ccc2OCCN.O=C(O)C(F)(F)F.O=C(O)C(F)(F)F.O=C(O)C(F)(F)F.O=C(O)C(F)(F)F
Escherichia coli [1]
  MIC: ≤ 0.03 mg/L
Escherichia coli [2]
  MIC: ≤ 0.03 mg/L
Acinetobacter baumannii [3]
  MIC: 0.25 mg/L
Pseudomonas aeruginosa [4]
  MIC: 4 mg/L
Klebsiella pneumoniae [5]
  MIC: 0.06 mg/L
Acinetobacter baumannii [6]
  MIC: 0.5 mg/L
Klebsiella pneumoniae [7]
  MIC: ≤ 0.03 mg/L
Pseudomonas aeruginosa [8]
  MIC: 4 mg/L
Klebsiella pneumoniae [9]
  MIC: 0.125 mg/L
Escherichia coli [10]
  MIC: ≤ 0.03 mg/L

## Cc1nc(-c2ccc(C(C)(C)C)cc2)ncc1NC(=O)N[C@@H](CCN)C(=O)N(C)[C@@H]1C(=O)N[C@@H](C)C(=O)N[C@H](C(=O)NCC#N)Cc2ccc(OCCN)c(c2)-c2cc1ccc2OCCN.O=C(O)C(F)(F)F.O=C(O)C(F)(F)F.O=C(O)C(F)(F)F.O=C(O)C(F)(F)F
Escherichia coli [1]
  MIC: 4 mg/L
Escherichia coli [2]
  MIC: 8 mg/L
Acinetobacter baumannii [3]
  MIC: 32 mg/L
Pseudomonas aeruginosa [4]
  MIC: > 64 mg/L
Klebsiella pneumoniae [5]
  MIC: 16 mg/L
Acinetobacter baumannii [6]
  MIC: 8 mg/L
Klebsiella pneumoniae [7]
  MIC: 16 mg/L
Pseudomonas aeruginosa [8]
  MIC: > 64 mg/L
Klebsiella pneumoniae [9]
  MIC: 32 mg/L
Escherichia coli [10]
  MIC: 16 mg/L

## Cc1nc(-c2ccc(C(C)(C)C)cc2)ncc1C(=O)N[C@@H](CCN)C(=O)N(C)[C@@H]1C(=O)N[C@@H](C)C(=O)N[C@H](C(=O)OCC=O)Cc2ccc(OCCN)c(c2)-c2cc1ccc2OCCN.Cl.Cl.Cl.Cl
Escherichia coli [1]
  MIC: ≤ 0.03 mg/L
Escherichia coli [2]
  MIC: 0.125 mg/L
Acinetobacter baumannii [3]
  MIC: 8 mg/L
Pseudomonas aeruginosa [4]
  MIC: > 64 mg/L
Klebsiella pneumoniae [5]
  MIC: ≤ 0.03 mg/L
Acinetobacter baumannii [6]
  MIC: 2 mg/L
Klebsiella pneumoniae [7]
  MIC: ≤ 0.03 mg/L
Pseudomonas aeruginosa [8]
  MIC: > 64 mg/L
Klebsiella pneumoniae [9]
  MIC: 0.06 mg/L
Escherichia coli [10]
  MIC: 0.06 mg/L

## Cc1nc(-c2ccc(C(C)(C)C)cc2)ncc1CN[C@@H](CCN)C(=O)N(C)[C@@H]1C(=O)N[C@@H](C)C(=O)N[C@H](C(=O)NCC#N)Cc2ccc(OCCN)c(c2)-c2cc1ccc2OCCN.O=C(O)C(F)(F)F.O=C(O)C(F)(F)F.O=C(O)C(F)(F)F.O=C(O)C(F)(F)F
Escherichia coli [1]
  MIC: 0.5 mg/L
Escherichia coli [2]
  MIC: 2 mg/L
Acinetobacter baumannii [3]
  MIC: 8 mg/L
Pseudomonas aeruginosa [4]
  MIC: 64 mg/L
Klebsiella pneumoniae [5]
  MIC: 16 mg/L
Acinetobacter baumannii [6]
  MIC: 2 mg/L
Klebsiella pneumoniae [7]
  MIC: 16 mg/L
Pseudomonas aeruginosa [8]
  MIC: > 64 mg/L
Klebsiella pneumoniae [9]
  MIC: 32 mg/L
Escherichia coli [10]
  MIC: 4 mg/L
